Data: ChEMBL document CHEMBL1142932 (Bioorg Med Chem, 2007)

Columns and labels:
Adenosine receptor A1 = target: T1, Adenosine receptor A1 (Homo sapiens, UniProt P30542); assay: Displacement of [3H]DPCPX from human recombinant adenosine A1 receptor expressed in HEK293T cells; assay type: cell-based, HEK-293T
T1 sequence (P30542 whole entry): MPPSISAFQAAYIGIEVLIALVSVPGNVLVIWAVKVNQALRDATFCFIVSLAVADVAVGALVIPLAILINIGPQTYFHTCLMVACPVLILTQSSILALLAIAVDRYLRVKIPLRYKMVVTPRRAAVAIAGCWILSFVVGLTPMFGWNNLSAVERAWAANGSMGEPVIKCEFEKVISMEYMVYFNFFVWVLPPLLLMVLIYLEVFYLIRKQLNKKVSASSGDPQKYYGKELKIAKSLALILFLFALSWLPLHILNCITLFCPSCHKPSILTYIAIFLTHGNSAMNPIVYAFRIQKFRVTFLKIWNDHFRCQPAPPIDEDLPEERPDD

Adenosine receptor A2a [1] = target: T2, Adenosine receptor A2a (Homo sapiens, UniProt P29274); assay: biochemical
Adenosine receptor A3 = target: T3, Adenosine receptor A3 (Homo sapiens, UniProt P0DMS8); assay: Displacement of [3H]NECA from human recombinant adenosine A3 receptor expressed in HEK293T cells; assay type: cell-based, HEK-293T
T3 sequence (P0DMS8 whole entry): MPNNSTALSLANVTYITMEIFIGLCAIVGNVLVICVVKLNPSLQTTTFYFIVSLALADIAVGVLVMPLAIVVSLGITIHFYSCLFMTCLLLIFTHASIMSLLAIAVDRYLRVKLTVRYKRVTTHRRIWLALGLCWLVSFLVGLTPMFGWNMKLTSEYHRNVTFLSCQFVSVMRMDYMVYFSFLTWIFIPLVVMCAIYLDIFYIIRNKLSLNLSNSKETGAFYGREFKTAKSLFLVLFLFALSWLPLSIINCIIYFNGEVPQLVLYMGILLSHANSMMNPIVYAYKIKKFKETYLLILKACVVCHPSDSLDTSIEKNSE

[2] = target: T4, Adenosine receptor A1 (Homo sapiens) (UniProt P30542); assay: Displacement of [3H]DPCPX from human recombinant adenosine A1 receptor expressed in HEK293T cells at 100 uM; assay type: cell-based; conditions: HEK-293T
T4 sequence (whole entry): T1 sequence (P30542 whole entry)

[3] = target: T5, Adenosine receptor A3 (Homo sapiens) (UniProt P0DMS8); assay: Displacement of [3H]NECA from human recombinant adenosine A3 receptor expressed in HEK293T cells at 100 uM; assay type: cell-based; conditions: HEK-293T
T5 sequence (whole entry): T3 sequence (P0DMS8 whole entry)

Adenosine receptor A2a [4] = target: T2, Adenosine receptor A2a; assay: Displacement of [3H]CGS21680 from human recombinant adenosine A2A receptor expressed in HEK293T cells at 100 uM; assay type: cell-based; conditions: HEK-293T

T2 sequence (P29274 whole entry): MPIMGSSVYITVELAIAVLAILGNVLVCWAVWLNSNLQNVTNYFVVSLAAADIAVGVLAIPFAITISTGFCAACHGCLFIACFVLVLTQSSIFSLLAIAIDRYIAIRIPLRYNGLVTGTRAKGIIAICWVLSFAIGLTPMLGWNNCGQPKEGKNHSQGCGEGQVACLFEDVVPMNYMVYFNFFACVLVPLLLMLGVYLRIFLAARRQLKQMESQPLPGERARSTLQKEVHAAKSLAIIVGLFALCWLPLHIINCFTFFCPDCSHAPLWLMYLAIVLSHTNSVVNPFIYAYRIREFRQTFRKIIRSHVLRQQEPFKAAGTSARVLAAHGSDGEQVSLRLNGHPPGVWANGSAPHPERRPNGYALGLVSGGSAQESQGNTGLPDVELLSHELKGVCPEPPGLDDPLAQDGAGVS

SMILES	Ki (Adenosine receptor A1)	Ki (Adenosine receptor A2a [1])	Ki (Adenosine receptor A3)	Activity [2]	Activity [3]	Activity (Adenosine receptor A2a [4])
Oc1c(Br)cc2[nH]c3cnccc3c2c1Br	7.37 µM	4.92 µM	2.05 µM			
Cn1c(=O)c2[nH]c3cnccc3c2n(C)c1=O	11.7 µM		0.526 µM			
CN1CC(N(C)c2cccnc2)C(=O)N(C)C1=O (stereo unspecified)				9%	0.2%	29%
Cn1c(=O)c2c(c3ncccc3n2C)n(C)c1=O	13.5 µM		0.332 µM			
CN1CC(Nc2cccnc2)C(=O)N(C)C1=O (stereo unspecified)				22%	25%	38%
Cn1c(=O)c2c(c3ccncc3n2C)n(C)c1=O		4.19 µM	3.19 µM			
CN1C(=O)C(N)C(c2ccncc2Cl)N(C)C1=O (stereo unspecified)				8%	3%	15%
Cn1c(=O)c2c(ncn2C)n(C)c1=O					9%	
Cn1c(=O)c2[nH]c3cccnc3c2n(C)c1=O	0.379 µM		0.0139 µM			
